Reference: a compilation of properties of binary mixtures (doi:10.1021/acs.jced.8b00965)

Assay: xn = mol fraction of the nth substance listed
Conditions: 100 kPa

C[N+](C)(C)CCC[n+]1ccccc1.N#C[N-]C#N.N#C[N-]C#N + CO
viscosity [mPa·s]
Conditions	x1 = 0.0999	x1 = 0.2001	x1 = 0.3002	x1 = 0.3999	x1 = 0.5002	x1 = 0.6001	x1 = 0.7003	x1 = 0.7998	x1 = 0.8995	x1 = 1
293.15 K	4.37	14.9	32.5	–	117	233	343	508	–	2191
303.15 K	3.66	11.4	23.1	45.9	–	131	–	255	396	830
313.15 K	–	9.01	17.4	–	–	81.1	110	–	198	–
323.15 K	2.82	7.36	–	–	–	–	70.6	90.5	116	210
333.15 K	–	–	11.4	–	28	–	49.3	60.6	76	127

CO + C[N+](C)(C)CCC[N+]1(C)CCCCC1.N#C[N-]C#N.N#C[N-]C#N
x2 = 0
Conditions	viscosity [mPa·s]
303.15 K	0.508
313.15 K	0.446
333.15 K	0.352

C[N+](C)(C)CCC[N+]1(C)CCCCC1.N#C[N-]C#N.N#C[N-]C#N + CO
viscosity [mPa·s]
Conditions	x1 = 0.0999	x1 = 0.2001	x1 = 0.3002	x1 = 0.3999	x1 = 0.5002	x1 = 0.6001	x1 = 0.7003	x1 = 0.7998	x1 = 0.8995	x1 = 1
293.15 K	4.25	14.7	39.6	109	–	–	1181	1884	2855	4503
303.15 K	3.58	–	–	70.3	–	330	610	920	1281	1837
313.15 K	3.09	8.9	20.3	46.7	100	203	337	489	646	860
323.15 K	–	7.22	–	33.8	68	130	206	292	369	460
333.15 K	2.46	6	12.5	–	48.4	88.2	134	187	236	270

CO + C[N+](C)(C)CCC[n+]1ccccc1.N#C[N-]C#N.N#C[N-]C#N
x2 = 0
Conditions	viscosity [mPa·s]
293.15 K	0.584
303.15 K	0.508
313.15 K	0.446
323.15 K	0.395
333.15 K	0.352
